Reference: the SangsterLogP compilation

What was measured:
[1] = method code SF-RC, from Audran, M.; Chanal, J.; Berge, G.; Marignan, R. (1983). Binding-structure correlation of bovine serum albumin in a series of cresotinamides. International Journal of Pharmaceutics, 15(3)273-284.; settings: pH 1.0
[2] = method code SF-AS, from DOI: 10.1021/jm00284a014, PMID: 5544400
[3] = method code SF-AS, from DOI: 10.1111/1523-1747.ep12263302, PMID: 6470515
[4] = method code SF, from DOI: 10.1021/bk-1995-0606.ch005
[5] = method code SF-AS, from DOI: 10.1248/cpb.32.2380
[6] = method code SF-GLC, from DOI: 10.1016/0378-4274(86)90173-6, PMID: 3952768
[7] = method code SF, from DOI: 10.1016/j.bmcl.2006.04.097, PMID: 16714112
[8] = not given; remark: listed apart in the source
[9] = method code SF-HPLC, from PMID: 3799213; settings: pH 4.0
[10] = method code SF-C, from DOI: 10.1038/194178b0
[11] = method code SF-AS, from DOI: 10.1021/j150653a049
[12] = not given; remark: listed apart in the source
[13] = method code SF, from DOI: 10.1248/yakushi1947.96.10_1169, PMID: 1033993; settings: pH 0.7
[14] = method code SF, from DOI: 10.1021/bk-1995-0606.ch004
[15] = not given; remark: listed apart in the source
[16] = not given; remark: listed apart in the source
[17] = from Dutta, H.; Mehta, N.; SenGupta, M.; Pal, D.; Sengupta, C.; De, A. (1988). Dioxanide furoate: studies on its interaction with blood phospholipid in relation to partition coefficients of related drugs. …
[18] = from Kurihara, N.; Yamakawa, K.; Fujita, T.; Nakajima, M. (1980). Studies on BHC isomers and related compounds. XXVI. Anaerobic degradation of tetra-, penta- and hexachlorocyclohexane isomers by rat liver …
[19] = method code SF-AS, from DOI: 10.1021/bi00730a008, PMID: 4688860
[20] = method code SF-AS, from DOI: 10.1016/0005-2728(86)90252-5, PMID: 3015209; settings: pH 7.2
[21] = method code SF-AS, from DOI: 10.1016/j.bioorg.2006.09.003, PMID: 17078995; settings: pH 7.4
[22] = not given; remark: listed apart in the source
[23] = method code SF-AS, from DOI: 10.1016/0378-5173(90)90042-3
[24] = method code SF-AS, from Korenman, Y.; Danilov, N. (1990). Extraction of alkyl salicylates from aqueous media. Journal of Applied Chemistry of the USSR, 63(1)125-129.
[25] = method code SF-GLC, from PMID: 6629728; settings: pH 7.4
[26] = method code SF, from DOI: 10.1002/1522-2675(20001004)83:10<2836::aid-hlca2836>3.0.co;2-g; settings: pH 12.5
[27] = not given; remark: listed apart in the source

`Cc1cc(Br)cc(C(=O)NC2CC2)c1O` gave a logD [1] of 3.8.
`CCCN1CCCN(CCC)C1=S` gave a logP [2] of 2.83.
With `Nc1ccc(Cl)c(N)c1` the logP [3] was 0.85.
`COC(=O)c1ccccc1CS(=O)(=O)Nc1nc(OC)cc(OC)n1` showed a logD ([4]; pH 5.0) of 2.4.
For `CN1C(CSCC(F)(F)F)Nc2cc(Cl)c(S(N)(=O)=O)cc2S1(=O)=O` (stereo not drawn), the logP [5] was 1.9.
In the case of `Cc1ncn(-c2ccc(Cl)cc2)c(=O)c1C(=O)O`, the logP is reported as 2.26.
Compound `CC(=O)CCC(C)C` has a logP [6] of 1.88.
Compound `FC(F)(F)c1ccccc1C1=NCCO1` has a logP [7] of 2.15.
For `CCCC(CC)C(=O)O` (stereo not drawn), the logP [8] was 2.23.
With `CCOC(=O)OCn1c(=O)[nH]cc(F)c1=O` the logD [9] was 0.15.
Compound `CCc1cccc(OCC(=O)O)c1` has a logP [10] of 2.3.
For `O=C(O)COc1cccc(Br)c1`, the logP [10] was 2.4.
Compound `OCc1cc(Br)ccc1O` has a logP [11] of 1.72.
`CCNc1ccccc1` showed a logP [12] of 2.16.
In the case of `Nc1cc([N+](=O)[O-])ccc1O`, the logP [3] is reported as 1.13.
`CCOC(=O)OCn1cc(F)c(=O)[nH]c1=O` showed a logD [9] of -0.04.
Work on `O=C(O)COc1ccc(Cl)cc1` yielded a logP [10] of 2.23.
Work on `S=c1[nH]c2ccccc2[nH]1` yielded a logP [2] of 1.66.
Compound `COC(=O)Nc1ccccc1` has a logP [4] of 1.76.
Compound `Nc1ccc(N)cc1` has a logP [3] of -0.3.
In the case of `C=CCC1(CC)C(=O)NC(=O)N(C)C1=O` (stereo not drawn), the logD [13] is reported as 1.35.
`COP(=O)(OC)Oc1ccc(C#N)cc1` gave a logP [14] of 0.84.
For `Nc1cc(Cl)cc(Cl)c1`, the logP [15] was 2.6.
`NC(=O)c1cccnc1` showed a logP [16] of -0.34.
`CC(=O)Oc1ccc(NC(=O)C(Cl)Cl)cc1` gave a logP [17] of 1.9.
Work on `ClC1=CC(Cl)C(Cl)C(Cl)C1Cl` (stereo not drawn) yielded a logP [18] of 3.61.
Work on `O=CNc1cccc(Cl)c1` yielded a logP [19] of 1.9.
For `ClC1C=CC(Cl)C(Cl)C1Cl` (stereo not drawn), the logP [18] was 3.08.
For `COP(=O)(OC)Oc1c(Cl)cc(C)cc1Cl`, the logP [14] was 2.66.
Work on `N#CC(C#N)=NNc1c(Cl)cccc1Cl` yielded a logD [20] of 2.01.
In the case of `CCC(=O)OCCc1ccc(O)c(OC)c1`, the logD [21] is reported as 2.33.
`C1=C(c2ccccc2)CCN(c2ccccc2)C1` gave a logP [22] of 2.71.
Work on `CCC1C(=O)NC(=O)NC1=O` yielded a logD [13] of -0.35.
With `CN(C(=O)C(Cl)Cl)c1ccc(O)cc1` the logP [17] was 1.78.
`OCCc1ccc(O)c(O)c1` gave a logD [21] of 0.09.
`CCCOC(=O)c1cc(=O)[nH]c(=O)[nH]1` gave a logP [23] of 1.1.
With `COc1ccc(S(N)(=O)=O)cc1` the logP [22] was 0.48.
Work on `CC(C)OC(=O)c1cc(=O)[nH]c(=O)[nH]1` yielded a logP [23] of 0.81.
Work on `CCCCC(CCC)C(=O)O` (stereo not drawn) yielded a logP [8] of 3.01.
`CC(=O)Oc1ccc(N(C)C(=O)C(Cl)Cl)cc1` gave a logP [17] of 1.56.
`COC(=O)c1ccccc1O` gave a logP [24] of 2.08.
For `C1CC2OC2CC1C1CO1` (stereo not drawn), the logD [25] was 0.44.
In the case of `Cc1ccc(C)c(NN=C(C#N)C#N)c1`, the logD [20] is reported as 2.6.
With `CCCC(C)C(=O)O` (stereo not drawn) the logP [8] was 1.8.
For `CNCCc1ccccc1`, the logD [26] was 1.68.
For `Cc1cccc(C)c1C1=NCCO1`, the logP [7] was 2.21.
`COc1cc(N)cc(OC)c1` showed a logP [15] of 0.99.
Work on `COc1cccc(OC)c1C(=O)O` yielded a logP [27] of 0.95.
